In US20220235006A1, “PYRIDINE DERIVATIVES AS TMEM16A MODULATORS FOR USE IN THE TREATMENT OF RESPIRATORY CONDITIONS” (TMEM16A LIMITED, priority 2019, published 2022):

Molecular target: T1, human TMEM16A (TMEM16Aabc variant) (Homo sapiens, UniProt Q5XXA6, DEL476-501)
T1 sequence (Q5XXA6 with tags, fused parts or gaps isoform Q5XXA6-5 DEL539-564): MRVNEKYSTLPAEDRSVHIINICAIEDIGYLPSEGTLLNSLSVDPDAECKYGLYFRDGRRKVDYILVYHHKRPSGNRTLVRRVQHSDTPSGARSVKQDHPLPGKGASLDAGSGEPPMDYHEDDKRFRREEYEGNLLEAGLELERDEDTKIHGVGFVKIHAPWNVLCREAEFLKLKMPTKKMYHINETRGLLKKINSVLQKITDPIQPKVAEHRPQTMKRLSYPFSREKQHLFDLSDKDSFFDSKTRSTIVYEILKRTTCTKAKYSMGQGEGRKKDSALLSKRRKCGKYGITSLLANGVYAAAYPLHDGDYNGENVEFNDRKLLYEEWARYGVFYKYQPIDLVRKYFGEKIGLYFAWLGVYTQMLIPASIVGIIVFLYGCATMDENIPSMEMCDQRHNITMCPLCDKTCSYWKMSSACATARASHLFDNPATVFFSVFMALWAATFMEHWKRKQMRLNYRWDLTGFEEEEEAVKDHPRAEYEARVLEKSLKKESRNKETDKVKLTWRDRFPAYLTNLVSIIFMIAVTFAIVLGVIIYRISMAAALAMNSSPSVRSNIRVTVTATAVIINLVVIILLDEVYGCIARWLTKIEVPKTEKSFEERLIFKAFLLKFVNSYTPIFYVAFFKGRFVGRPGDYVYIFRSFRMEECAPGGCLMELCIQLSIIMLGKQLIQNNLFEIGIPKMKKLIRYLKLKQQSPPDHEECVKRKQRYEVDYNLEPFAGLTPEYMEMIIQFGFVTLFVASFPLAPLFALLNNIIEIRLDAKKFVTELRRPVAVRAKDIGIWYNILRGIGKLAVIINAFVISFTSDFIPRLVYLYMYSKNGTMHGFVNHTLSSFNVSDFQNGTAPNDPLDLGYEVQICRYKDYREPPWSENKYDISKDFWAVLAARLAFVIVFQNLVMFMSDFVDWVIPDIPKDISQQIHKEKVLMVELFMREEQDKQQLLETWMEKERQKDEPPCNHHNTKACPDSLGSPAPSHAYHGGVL
Assay: Automated whole-cell patch clamp (Qpatch) TMEM16A potentiator assay in recombinant FRT cells
Assay type: cell-based
Conditions: for activation at 3.33 µM: percentage increase of baseline TMEM16A current, minimum n = 2, read-out: % Potentiation @ 3.33 uM Avg; for EC50: minimum n = 2
How it was run: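 FRT cells stably expressing human TMEM16Aabc, whole-cell automated patch clamp with intracellular Ca2+ buffered for ~20% maximal current (EC20). Held at −70 mV, step to +70 mV/ramp at 0.05 Hz, cumulative compound additions of 5 min each. Peak +70 mV current increase expressed as % potentiation of baseline.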

| activation at 3.33 µM | EC50 | SMILES |
| --- | --- | --- |
| 233% | 45 nM | Cc1cc(C(C)(C)CO)c(O)cc1CC(=O)Nc1ccnc(C(=O)NC2(C(F)(F)F)CC2)c1 [Example 14.1, 4-[[2-[5-Hydroxy-4-(2-hydroxy-1,1-dimethyl-ethyl)-2-methyl-phenyl]acetyl]amino]-N-[1-(trifluoromethyl)cyclopropyl]pyridine-2-carboxamide] |
| 243% | 64 nM | CC(C)(O)c1cc(F)c(CC(=O)Nc2ccnc(C(=O)NC3(C(F)(F)F)CC3)c2)cc1O [Example 2, 4-[[2-[2-Fluoro-5-hydroxy-4-(1-hydroxy-1-methyl-ethyl)phenyl]acetyl]amino]-N-[1-(trifluoromethyl)cyclopropyl]pyridine-2-carboxamide] |
| 490% | 33 nM | CC(C)(CO)c1cc(Cl)c(CC(=O)Nc2ccnc(C(=O)NC3(C(F)(F)F)CC3)c2)cc1O [Example 14, 4-[[2-[2-Chloro-5-hydroxy-4-(2-hydroxy-1,1-dimethyl-ethyl)phenyl]acetyl]amino]-N-[1-(trifluoromethyl)cyclopropyl]pyridine-2-carboxamide] |
| 390% | 64 nM | CCC(C)(O)c1cc(F)c(CC(=O)Nc2ccnc(C(=O)NC3(C(F)(F)F)CC3)c2)cc1O (centres unmarked) [Example 2.11, 4-[[2-[2-Fluoro-5-hydroxy-4-(1-hydroxy-1-methyl-propyl)phenyl]acetyl]amino]-N-[1-(trifluoromethyl)cyclopropyl]pyridine-2-carboxamide] |
| 374% | 93 nM | O=C(Cc1cc(O)c(C(CO)C(F)(F)F)cc1F)Nc1ccnc(C(=O)NC2(C(F)(F)F)CC2)c1 (centres unmarked) [Example 17, 4-[[2-[2-Fluoro-5-hydroxy-4-[2,2,2-trifluoro-1-(hydroxymethyl)ethyl]phenyl]acetyl]amino]N-[1-(trifluoromethyl)cyclopropyl]pyridine-2-carboxamide] |
| 208% | 43 nM | CC(C)(CCO)c1cc(F)c(CC(=O)Nc2ccnc(C(=O)NC3(C(F)(F)F)CC3)c2)cc1O [Example 11, 4-[[2-[2-Fluoro-5-hydroxy-4-(3-hydroxy-1,1-dimethyl-propyl)phenyl]acetyl]amino]-N-[1-(trifluoromethyl)cyclopropyl]pyridine-2-carboxamide] |
| 339% | 37 nM | O=C(Cc1cc(O)c(C2(CO)CCC2)cc1F)Nc1ccnc(C(=O)NC2(C(F)(F)F)CC2)c1 [Example 2.13, 4-[[2-[2-Fluoro-5-hydroxy-4-[1-(hydroxymethyl)cyclobutyl]phenyl]acetyl]amino]-N-[1-(trifluoromethyl)cyclopropyl]pyridine-2-carboxamide] |
| 476% | 64 nM | CC(C)(C#N)NC(=O)c1cc(NC(=O)Cc2ccc(C(C)(C)C)c(O)c2)ccn1 [93.4 of PCT/GB2019/050209, reference compound] |
| 380% | 104 nM | CC(C#N)NC(=O)c1cc(NC(=O)Cc2cc(O)c(C(C)(C)C)cc2F)ccn1 (centres unmarked) [Example 1.3] |
| 270% | 30 nM | CC(C)(CO)c1cc(F)c(CC(=O)Nc2ccnc(C(=O)NC3(C(F)(F)F)CC3)c2)cc1O [Example 2.6, 4-[[2-[2-Fluoro-5-hydroxy-4-(2-hydroxy-1,1-dimethyl-ethyl)phenyl]acetyl]amino]-N-[1-(trifluoromethyl)cyclopropyl]pyridine-2-carboxamide] |
| 250% | 36 nM | CC(C)(CO)c1cc(Cl)c(CC(=O)Nc2ccnc(C(=O)NC3(C(F)F)CC3)c2)cc1O [Example 15.3, 4-[[2-[2-Chloro-5-hydroxy-4-(2-hydroxy-1,1-dimethyl-ethyl)phenyl]acetyl]amino]-N-[1-(difluoromethyl)cyclopropyl]pyridine-2-carboxamide] |
| – | 55 nM | CC(C)(C)NC(=O)c1cc(NC(=O)Cc2cc(O)c(C(C)(C)C)cc2F)ccn1 [91 of PCT/GB2019/050209, reference compound] |
